Measurements reported in ChEMBL document CHEMBL1154952, “N1-Alkyl pyrimidinediones as non-nucleoside inhibitors of HIV-1 reverse transcriptase” (Bioorg Med Chem Lett, 2010).
≈ marks a conversion by molar mass, not a printed value.

How the values were obtained:
Albumin = Albumin (Homo sapiens, UniProt P02768); assay: Binding affinity to human serum albumin; type: ADME; conditions: read-out: PB (converted)
[1] = Oral bioavailability in Beagle dog at 4 mg/kg; type: ADME, organism-based, Canis lupus familiaris; conditions: in vivo
[2] = Half life in Beagle dog at 0.5 mg/kg, iv or. 5 mg/kg, po; type: ADME, organism-based, Canis lupus familiaris; conditions: in vivo
[3] = Volume of distribution at steady state in Beagle dog at 0.5 mg/kg, iv or. 5 mg/kg, po; type: ADME, organism-based, Canis lupus familiaris; conditions: in vivo, read-out: Vdss
[4] = system: Human immunodeficiency virus 1; assay: Antiviral activity against NNRTI-resistant HIV1 harboring reverse transcriptase K103N mutant infected in human MT2 cells; type: functional, organism-based; conditions: Human immunodeficiency virus 1, MT2
[5] = system: Human immunodeficiency virus 1; assay: Antiviral activity against wild type HIV1 infected in human MT2 cells; type: functional, organism-based; conditions: Human immunodeficiency virus 1, MT2
[6] = system: Human immunodeficiency virus 1; assay: Antiviral activity against HIV1 harboring reverse transcriptase Y181C mutant infected in human MT2 cells; type: functional, organism-based; conditions: Human immunodeficiency virus 1, MT2
[7] = Oral bioavailability in Beagle dog at 5 mg/kg, po dosed as Tablet formulation; type: ADME, organism-based, Canis lupus familiaris; conditions: in vivo
[8] = Oral bioavailability in Beagle dog at 0.5 mg/kg; type: ADME, organism-based, Canis lupus familiaris; conditions: in vivo
[9] = Oral bioavailability in Beagle dog at 5 mg/kg, po dosed as suspension; type: ADME, organism-based, Canis lupus familiaris; conditions: in vivo
[10] = AUC ((0 to infinity)) in Beagle dog at 5 mg/kg, po dosed as suspension; type: ADME, organism-based, Canis lupus familiaris; design: time infinity, dose 5 mg/kg, route oral; conditions: plasma
[11] = AUC ((0 to infinity)) in Beagle dog at 5 mg/kg, po dosed as Tablet formulation; type: ADME, organism-based, Canis lupus familiaris; design: time infinity, dose 5 mg/kg, route oral; conditions: plasma
[12] = system: Human immunodeficiency virus 1; assay: Ratio of EC50 for HIV1 harboring reverse transcriptase Y181C mutant in absence of 50% human serum to EC50 for HIV1 harboring reverse transcriptase Y181C mutant in presence of 50% human serum; type: functional
[13] = Aqueous solubility in 50 mM phosphate buffer; type: physicochemical
[14] = system: Human immunodeficiency virus 1; assay: Ratio of EC50 for wild type HIV1 in absence of 50% human serum to EC50 for wild type HIV1 in presence of 50% human serum; type: functional
[15] = system: Human immunodeficiency virus 1; assay: Ratio of EC50 for HIV1 harboring reverse transcriptase K103N mutant in absence of 50% human serum to EC50 for HIV1 harboring reverse transcriptase K103N mutant in presence of 50% human serum; type: functional
Canis familiaris = assay: Toxicity in Beagle dog assessed as emesis at greater than 5 mg/kg, po dosed as suspension; type: organism-based, Canis lupus familiaris; design: dose 5 mg/kg, route oral; conditions: in vivo
[16] = Oral bioavailability in Beagle dog at 2 mg/kg; type: ADME, organism-based, Canis lupus familiaris; conditions: in vivo

Albumin, sequence (P02768 whole entry): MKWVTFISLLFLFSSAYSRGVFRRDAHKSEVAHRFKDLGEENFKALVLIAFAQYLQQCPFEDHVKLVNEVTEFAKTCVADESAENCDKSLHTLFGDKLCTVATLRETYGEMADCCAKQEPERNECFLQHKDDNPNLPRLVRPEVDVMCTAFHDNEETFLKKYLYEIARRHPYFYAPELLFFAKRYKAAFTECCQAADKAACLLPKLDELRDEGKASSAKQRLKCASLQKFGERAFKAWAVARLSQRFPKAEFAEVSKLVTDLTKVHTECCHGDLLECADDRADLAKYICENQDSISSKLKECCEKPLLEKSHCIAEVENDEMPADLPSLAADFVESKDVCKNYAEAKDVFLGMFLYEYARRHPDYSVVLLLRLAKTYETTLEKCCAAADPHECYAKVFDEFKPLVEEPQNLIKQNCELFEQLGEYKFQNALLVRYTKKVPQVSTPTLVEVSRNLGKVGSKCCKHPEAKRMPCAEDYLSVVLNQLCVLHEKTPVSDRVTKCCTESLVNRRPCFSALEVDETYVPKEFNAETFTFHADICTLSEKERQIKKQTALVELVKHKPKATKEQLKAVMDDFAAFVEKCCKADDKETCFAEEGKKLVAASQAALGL

SMILES | fraction unbound (Albumin) | half-life [2] | Vd [3] | EC50 [4] | EC50 [5] | EC50 [6] | also measured
Cc1cc(C#N)cc(C)c1Oc1nc(Nc2ccc(C#N)cc2)nc(N)c1Br [ETRAVIRINE] | 0.002 | 8.87 h | 1.6 L/kg | – | – | – | bioavailability [1]: 13%
Cc1cc(C#N)cc(C(=O)c2c(C(C)C)c(=O)[nH]c(=O)n2C)c1 | 0.141 | – | – | > 2.7 nM | 187 nM | > 2.7 nM | –
CCn1c(C(=O)c2cc(C)cc(C#N)c2)c(C(C)C)c(=O)[nH]c1=O | 0.166 | 6.5 h | 2.25 L/kg | 6.4 nM | 6.1 nM | 9.6 nM | bioavailability [7]: 45.1%; bioavailability [8]: 69%; bioavailability [9]: 35.8%; AUC(0-inf) [10]: 13.1 µM·h; AUC(0-inf) [11]: 13.5 µM·h; Ratio EC50 [12]: 2.7; solubility [13]: 11 µg/mL (≈ 33.8 µM); Ratio EC50 [14]: 2.7; Ratio EC50 [15]: 2.7
CCn1c(C(F)c2cc(C)cc(C#N)c2)c(C(C)C)c(=O)[nH]c1=O (stereo not drawn) | 0.02 | – | – | > 24 nM | 21 nM | 8.1 nM | –
CCn1c(C(=O)c2cc(C)cc(C#N)c2)c(C(C)C)c(=O)n(COC(C)=O)c1=O | – | – | – | – | – | – | bioavailability [7]: 35.3%; bioavailability [9]: 48.9%; AUC(0-inf) [10]: 14.7 µM·h; AUC(0-inf) [11]: 8.78 µM·h; solubility [13]: 2.2 µg/mL (≈ 5.54 µM)
CCCn1c(C(=O)c2cc(C)cc(C#N)c2)c(C(C)C)c(=O)[nH]c1=O | 0.009 | 1.67 h | 1.4 L/kg | > 36 nM | 3.6 nM | > 58 nM | –
CCn1c(C(=O)c2cc(C)cc(C#N)c2)c(C(C)C)c(=O)n(COP(=O)(O)O)c1=O | – | – | – | – | – | – | bioavailability [9]: 75.2%; AUC(0-inf) [10]: 18.8 µM·h; Activity (Canis familiaris): Toxic; solubility [13]: 12000 µg/mL (≈ 27600 µM)
CCn1c(C(=O)c2cc(C)cc(C#N)c2)c(C(C)C)c(=O)n(COC(=O)OC(C)C)c1=O | – | – | – | – | – | – | bioavailability [7]: 24%; bioavailability [9]: 108%; AUC(0-inf) [10]: 54 µM·h; AUC(0-inf) [11]: 4.54 µM·h; solubility [13]: < 1 µg/mL
CCn1c(Oc2cc(C)cc(C#N)c2)c(C(C)C)c(=O)[nH]c1=O | 0.04 | – | – | > 14 nM | 35 nM | 2.6 nM | –
O=C1Nc2ccc(Cl)cc2[C@@](C#CC2CC2)(C(F)(F)F)O1 [EFAVIRENZ] | 0.001 | – | – | – | – | – | –
CCCCn1c(C(=O)c2cc(C)cc(C#N)c2)c(C(C)C)c(=O)[nH]c1=O | 0.001 | 6.1 h | 2.23 L/kg | 10 nM | 3 nM | 12 nM | bioavailability [16]: 28%
CCn1c(C(=O)c2cc(C)cc(C#N)c2)c(C(C)(C)C)c(=O)[nH]c1=O | 0.007 | – | – | 2.7 nM | 10 nM | > 50 nM | –
Cc1cc(C#N)cc(C(=O)c2[nH]c(=O)[nH]c(=O)c2C(C)C)c1 | – | 6.4 h | 0.45 L/kg | > 1 nM | > 500 nM | > 1 nM | –
CCc1c(C(=O)c2cc(C)cc(C#N)c2)n(CC)c(=O)[nH]c1=O | 0.149 | 1.42 h | 1.53 L/kg | > 43 nM | 11.7 nM | > 43 nM | –
CCn1c(C(F)(F)c2cc(C)cc(C#N)c2)c(C(C)C)c(=O)[nH]c1=O | 0.013 | – | – | 9 nM | 4.2 nM | 4.3 nM | –
